Where two headings read alike, the source gives them in different places.
Tests used:
[1] = test system: Fusobacterium nucleatum (NT5025); assay: Prestwick Chemical Library growth screen (OD578 growth curves, AUC); format: cell-based; details: screen at 20 μM
[2] = test system: 40 different bacterial species; assay: Prestwick Chemical Library growth screen, whole panel (hits, anticommensal activity); format: cell-based, human gut isolates
[3] = calculated; cited from earlier work
[4] = Estimated gut concentration from administration dose; details: estimated from recommended administration dose
22 strains = assay: MIC of metformin at higher concentrations; details: 5/22 strains
[5] = cited from earlier work

## O=c1cc(-c2ccc(O)c(O)c2)oc2cc(O)cc(O)c12 [Luteolin]
[1]
  selective inhibition of the growth of Fusobacterium nucleatum (in words): selectively inhibiting the growth
[2]; number of species inhibited of 40 different bacterial species tested
  n_hit: 1

## CN(C)C(=N)N=C(N)N [metformin]
[3]
  small intestine concentration relative to plasma concentration: 30-300 fold
[4]
  estimated gut concentration: 5 mM
[2]; 20 μM, 40 strains, FDR<0.01
  anticommensal activity in the screen (in words): did not show anticommensal activity
22 strains
  Minimal Inhibitory Concentration (MIC): < 10 mM

## CC[C@@H]([C@H](C)O)n1ncn(-c2ccc(N3CCN(c4ccc(OC[C@@H]5CO[C@@](Cn6cncn6)(c6ccc(F)cc6F)C5)cc4)CC3)cc2)c1=O [posaconazole]
[5]; 40 mg (57 μmol) delivered to the stomach in acidic solution
  maximum concentration in the duodenum: 26.3 ± 10.3 µM
[5]; 40 mg (57 μmol) delivered to the stomach in neutral solution
  maximum concentration in the duodenum: 13.6 ± 5.8 µM

Reference: patent publication US11766427B2, “Repurposing compounds for the treatment of infections and for modulating the composition of the gut microbiome” (EUROPEAN MOLECULAR BIOLOGY LABORATORY, priority 2018, dated 2023)
